Source: PMC12471299, “Secondary Metabolites of the Marine Sponge-Derived Fungus Aspergillus subramanianii 1901NT-1.40.2 and Their Antimicrobial and Anticancer Activities” (Marine Drugs, 2025)
Where two headings read alike, the source gives them in different places.

Columns and labels:
[1] = tested on: Escherichia coli VKPM (B-7935); test: Biofilm formation assay (MTT); format: cell-based
Experimental: (§1) The Gram-positive bacterial Staphylococcus aureus ATCC 21027, Gram-negative bacterial Escherichia coli VKPM (B-7935), and yeast-like fungal Candida albicans KMM 455 strains were fermented on solid medium Mueller Hinton broth with agar (16.0 g/L) in a Petri dish at 37 °C for 24 h. The antimicrobial activity of the compound was tested at concentrations ranging from 100 µM and lower. The effect of the compound on bacterial growth was estimated as described by. Gentamicin and amphotericin B were used as positive controls against S. aureus, E. coli, and C. albicans, and a 1% dimethyl sulfoxide (DMSO) solution in PBS was used as a negative control. The optical density of the bacterial suspension after 18 h was measured at λ = 620 nm. The effect of the compound on biofilm formation for 18 h was tested using MTT reagent (Sigma-Aldrich, St. Louis, MO, USA) in accordance with. The optical density of the obtained solution was measured at λ = 570 nm. A Multiskan FS spectrophotometer (Thermo Scientific Inc., Beverly, MA, USA) was used for both assays. The results were calculated as percentages of the control data and presented as minimal concentrations reduced by 50% of growth or biofilm formation (MIC50).

Candida albicans KMM 455 [2] = test: Biofilm formation assay (MTT); format: cell-based
Experimental: as §1

[3] = tested on: Staphylococcus aureus ATCC 21027; test: Biofilm formation assay (MTT); format: cell-based
Experimental: as §1

H9c2 cardiomyocytes = test: Cell viability assay (MTT); format: cell-based, rat
Source text: (§2) Rat cardiomyocyte H9c2 cells were kindly provided by Prof. Dr. Gunhild von Amsberg from the Martini-Klinik Prostate Cancer Center, University Hospital Hamburg-Eppendorf, Hamburg, Germany. The human HaCaT keratinocyte cell line was kindly provided by Prof. N. Fusenig (Cancer Research Centre, Heidelberg, Germany). Non-cancerous human breast epithelial MCF-10A cells were kindly provided by Dr. Irina Zhitnyak (N. N. Blokhin National Medical Research Center of Oncology, Moscow, Russia). Human breast cancer MCF-7 HTB-22 and MDA-MB-231 cells were obtained from the ATTC (Manassas, VA, USA).
(§3) H9c2 and HaCaT cells were cultured in DMEM with 10% fetal bovine serum and 1% penicillin/streptomycin (BioloT, St. Petersburg, Russia). MCF-7 and MDA-MB-231 cells were cultured in MEM (BioloT, St. Petersburg, Russia) with 10% fetal bovine serum (FBS) and 1% penicillin/streptomycin (BioloT, St. Petersburg, Russia). MCF 10A cells were cultured in DMEM F12 medium (BioloT, St. Petersburg, Russia) supplemented with 20% FBS, 20 ng/mL hrEGF (Sci-Store, Moscow, Russia), and 1% penicillin/streptomycin (BioloT, St. Petersburg, Russia). All cells were cultured at 37 °C in a humidified atmosphere containing 5% CO2.
(§4) H9c2 cells were seeded at a concentration of 3 × 10^3 cells/well. MCF-10A, MCF-7, and MDA-MB-231 cells were seeded at 5 × 10^3 cells/well, and HaCaT cells were seeded at 1 × 10^4 cells/well. The experiments were initiated after 24 h.
(§5) Compounds at concentrations up to 100 µM were added to the wells for 24h or 48 h, and the viability of the cells was measured using an MTT (3-(4,5-dimethylthiazol-2-yl)-2,5-diphenyltetrazolium bromide) assay, which was performed according to the manufacturer’s instructions (Sigma-Aldrich, Munich, Germany). […] DMSO was used as a control. The results are presented as percentages of the control data.

[4] = Cell viability assay (MTT); format: cell-based, rat; conditions: rat, H9c2 cardiomyocytes, read-out: Cytotoxicity IC50
Source text: as §2, §3, §4, §5

[5] = tested on: Escherichia coli VKPM (B-7935); test: Antimicrobial assay, growth inhibition (optical density); format: cell-based
Experimental: as §1

Candida albicans KMM 455 [6] = test: as above; format: cell-based
Experimental: as §1

[7] = tested on: Staphylococcus aureus ATCC 21027; test: as above; format: cell-based
Experimental: as §1

HaCaT keratinocytes = test: Cell viability assay (MTT); format: cell-based, human
Source text: as §2, §3, §4, §5

[8] = tested on: MCF-7 breast cancer cells; test: Cell viability assay (MTT); format: cell-based, human
Source text: as §2, §3, §4, §5

[9] = tested on: MDA-MB-231 breast cancer cells; test: Cell viability assay (MTT); format: cell-based, human
Source text: as §2, §3, §4, §5

[10] = tested on: MCF-10A breast epithelial cells; test: Cell viability assay (MTT); format: cell-based, human; conditions: MCF10A
Source text: as §2, §3, §4, §5

[11] = Cell viability assay (MTT); format: cell-based, human; conditions: human, read-out: Cytotoxicity IC50
Source text: as §2, §3, §4, §5

With `Cc1c(C)c(O)c2c(c1C)C(C)C(=O)OC2=O` (stereo not shown) [Compound 4, sclerin] the “Biofilm formation, MIC50” value ([1]; E. coli, 18 h) was >100 µM, the “effect on E. coli biofilm formation” value ([1]; at / up to 100 µM) was “did not affect” and the “Biofilm formation, MIC50” value (Candida albicans KMM 455 [2]; C. albicans, 18 h) was >100 µM. The “prevention of C. albicans biofilm formation” value (Candida albicans KMM 455 [2]; at 100 µM) was 20.22 ± 5.24%, the “Biofilm formation, MIC50” value ([3]; S. aureus, 18 h) was >100 µM and the “effect on S. aureus biofilm formation” value ([3]; at / up to 100 µM) was “did not affect”. For the same molecule, the cell viability (H9c2 cardiomyocytes; H9c2, 24 h, 1.0 µM) was 101.9 ± 5.8 % of control, the cell viability (H9c2 cardiomyocytes; H9c2, 24 h, 10.0 µM) was 101.9 ± 6.1 % of control and the cell viability (H9c2 cardiomyocytes; H9c2, 24 h, 100.0 µM) was 73.5 ± 4.4 % of control. The cell viability (H9c2 cardiomyocytes; H9c2, 48 h, 1.0 µM) was 101.4 ± 5.6 % of control, the cell viability (H9c2 cardiomyocytes; H9c2, 48 h, 10.0 µM) was 102.6 ± 7.4 % of control and the cell viability (H9c2 cardiomyocytes; H9c2, 48 h, 100.0 µM) was 56.2 ± 0.9 % of control. The IC50 at 24 h ([4]; H9c2, 24 h) was > 100 µM, the IC50 at 48 h ([4]; H9c2, 48 h) was 57.2 ± 2.4 µM and the MIC50 ([5]; Escherichia coli, 18 h, E. coli) was > 100 µM. The “effect on E. coli growth” value ([5]; at / up to 100 µM) was “did not affect”, the MIC50 (Candida albicans KMM 455 [6]; Candida albicans, KMM455, 18 h, C. albicans, 18 h) was > 100 µM and the “effect on C. albicans growth” value (Candida albicans KMM 455 [6]; at / up to 100 µM) was “did not affect”. For the same molecule, the MIC50 ([7]; Staphylococcus aureus, ATCC21027, 18 h, S. aureus, 18 h) was > 100 µM, the “effect on S. aureus growth” value ([7]; at / up to 100 µM) was “did not affect” and the cell viability (HaCaT keratinocytes; 24 h, 1.0 µM) was 100.2 ± 6.6 % of control. The cell viability (HaCaT keratinocytes; 24 h, 10.0 µM) was 94.7 ± 5.0 % of control, the cell viability (HaCaT keratinocytes; 24 h, 100.0 µM) was 49.5 ± 6.0 % of control and the cell viability (HaCaT keratinocytes; 48 h, 1.0 µM) was 96.4 ± 1.4 % of control. The cell viability (HaCaT keratinocytes; 48 h, 10.0 µM) was 72.1 ± 11.1 % of control, the cell viability (HaCaT keratinocytes; 48 h, 100.0 µM) was 51.5 ± 2.1 % of control and the cell viability ([8]; MCF-7, 24 h, 1.0 µM) was 104.3 ± 4.6 % of control. For the same molecule, the cell viability ([8]; MCF-7, 24 h, 10.0 µM) was 103.4 ± 5.4 % of control, the cell viability ([8]; MCF-7, 24 h, 100.0 µM) was 68.3 ± 4.5 % of control and the cell viability ([8]; MCF-7, 48 h, 1.0 µM) was 88.5 ± 4.7 % of control. For the same molecule, the cell viability ([8]; MCF-7, 48 h, 10.0 µM) was 95.9 ± 3.5 % of control, the cell viability ([8]; MCF-7, 48 h, 100.0 µM) was 74.1 ± 4.5 % of control and the cell viability ([9]; MDA-MB-231, 24 h, 1.0 µM) was 94.8 ± 4.2 % of control. For the same molecule, the cell viability ([9]; MDA-MB-231, 24 h, 10.0 µM) was 102.7 ± 4.9 % of control, the cell viability ([9]; MDA-MB-231, 24 h, 100.0 µM) was 63.1 ±1.6 % of control and the cell viability ([9]; MDA-MB-231, 48 h, 1.0 µM) was 94.3 ± 3.9 % of control. The cell viability ([9]; MDA-MB-231, 48 h, 10.0 µM) was 91.8 ± 7.5 % of control, the cell viability ([9]; MDA-MB-231, 48 h, 100.0 µM) was 47.1 ± 6.2 % of control and the cell viability ([10]; 24 h, 1.0 µM) was 90.8 ± 7.8 % of control. The cell viability ([10]; 24 h, 10.0 µM) was 88.6 ± 5.2 % of control, the cell viability ([10]; 24 h, 100.0 µM) was 47.0 ± 3.2 % of control and the cell viability ([10]; 48 h, 1.0 µM) was 98.0 ± 4.0 % of control. The cell viability ([10]; 48 h, 10.0 µM) was 96.8 ± 2.1 % of control, the cell viability ([10]; 48 h, 100.0 µM) was 73.5 ± 1.1 % of control and the IC50 at 24 h ([11]; HaCaT keratinocytes, 24 h) was ≥ 100 µM. For the same molecule, the IC50 at 48 h ([11]; HaCaT keratinocytes, 48 h) was ≥ 100 µM, the IC50 at 24 h ([11]; MCF-7 breast cancer cells, MCF-7, 24 h) was > 100 µM and the IC50 at 48 h ([11]; MCF-7 breast cancer cells, MCF-7, 48 h) was > 100 µM. The IC50 at 24 h ([11]; MCF-10A breast epithelial cells, MCF10A, 24 h) was 93.4 ± 3.5 µM, the IC50 at 48 h ([11]; MCF-10A breast epithelial cells, MCF10A, 48 h) was > 100 µM and the IC50 at 24 h ([11]; MDA-MB-231 breast cancer cells, MDA-MB-231, 24 h) was > 100 µM. For the same molecule, the IC50 at 48 h ([11]; MDA-MB-231 breast cancer cells, MDA-MB-231, 48 h) was 94.1 ± 3.2 µM.
